Drawing on US12655130B2 (ASSEMBLY BIOSCIENCES, INC., priority 2020, dated 2026), this text covers EC50 for 20 compounds.

For orientation: EC50 means the concentration giving half of the maximal effect.

Each structure is given as a SMILES string.

The first assay relates to HBV viral load (viral production from HepAD38 cells). The assay is described as follows: Activity of test compounds on viral production from HepAD38 cells (viral load by qPCR of HBV core sequence). To be noted: Hepatitis B virus, HePAD38, 120 h, viral load lowering, 5 days, qPCR of supernatant, read-out: VL HepAD38 EC50 range. The assay is classed as cell-based. The protocol:
Assay Measuring Activity of Test Compounds on Viral Production from HepAD38 Cells
HepAD38 cells grown in a T-150 flask (Corning, cat #: 430825) with Growth Medium (DMEM/F12 (1:1) (Hyclone, cat #: SH30023.02), 1× Pen/Strep (Invitrogen, cat #: 15140-122), 10% FBS (Tissue Culture Biologics, cat #: 101), 250 μg/mL G418 (Alfa Aesar, cat #: J62671), 1 μg/mL Tetracycline (Teknova, cat #: T3320)) were detached with 0.25% trypsin-EDTA (Invitrogen, cat #: 25200-056). Tetracycline-free treatment medium (15 mL DMEM/F12 (1:1) 1× Pen/step, with 2% FBS, Tet-system approved (Clontech, cat #: 631106) were then added to mix, transferred into a 50 ml conical tube (Falcon, cat #: 21008-918) and spun at 1300 rpm for 5 min. Pelleted cells were then re-suspended/washed with 50 mL of 1×DPBS (Invitrogen, cat #: 14190-136) 2 times and 50 mL treatment medium twice. HepAD38 cells were then re-suspended with 10 mL of treatment medium, syringed and counted. Wells of 96-well clear bottom TC plate (Corning, cat #: 3904) were seeded at 50,000 cells/well in 180 μL of treatment medium, and 20 μL of either 10% DMSO (Sigma, cat #: D4540) as controls or a 10× solution of test compounds in 10% DMSO in treatment media was added for a final compound concentration starting at 10 μM, and plates were incubated in 5% CO2 incubator at 37° C. for 5 days.
Subsequently viral load production was assayed by quantitative PCR (qPCR) of the HBV core sequence. PCR reaction mixture containing forward primers HBV-f 5′-CTGTGCCTTGGGTGGCITT-3′ (IDT DNA), Reverse primers HBV-r 5′-[…]-3′ (IDT DNA), Fluorescent TaqMan™ Probes HBV-probe 5′-FAM/AGCTCCAAA/ZENMITCTITATAAGGGTCGATGTC/3IABkFQ-3′ (IDT DNA), 10 μL/well of PerfeCTa® qPCR ToughMix® (Quanta Biosciences, Cat #: 95114-05K), and 6 μL/well of DEPC water (Alfa Aesar, cat #: J62087) was prepared. Four μL of supernatant was added to 16 μL of the reaction mixture in a qPCR plate (Applied Biosytems, Cat #: 4309849), sealed with a film (Applied Biosystems, Cat #: 4311971), centrifuged for a few seconds, and subsequently run on an Applied Biosystems VIIA7. The PCR mixture was incubated at 45° C. for 5 min, then 95° C. for 10 min, followed by 40 cycles of 10 seconds at 95° C. and 20 seconds at 60° C. Viral load was quantified against known HBV DNA standards by using ViiA™ 7 Software. Viral load in the supernatant from wells with treated cells were compared against viral load in supernatant from DMSO control wells (3 per plate). Cell viability assay was performed with CellTiter-Glo Luminescent Cell Viability Assay (Promega, cat #: G7573) with modification. Mixed appropriate amount of CellTiter-Glo (CTG) 1×DPBS in a 1:1 ratio, added 100 uL of the mixture to each well followed completely removal of all supernatant in each well without touching cell surface. Incubated the plate at room temperature for 10 min on an orbital shaker, and then read the plate with a plate reader (TECAN M1000 or Envision). EC50 or CC50 values were calculated through curve-fitting of the four-parameter nonlinear-logistic-regression model (GraphPad Prism or Dotmatics). CC50 values were all >10 μM.
(In general: Quantitative PCR measures a nucleic acid by following its amplification.)
As for `Cn1cnc(C2CC3CC(O)(c4cc(OCC(C)(C)O)nn4C)CC3C2)c1C(=O)Nc1ccc(F)c(Cl)c1` (centres unmarked) [Example 55, N-(3-Chloro-4-fluorophenyl)-4-(5-hydroxy-5-(3-(2-hydroxy-2-methylpropoxy)-1-methyl-1H-pyrazol-5-yl)octahydropentalen-2-yl)-1-methyl-1H-imidazole-5-carboxamide], the EC50 was less than 10 nM. Same read-out and setting: the value for `CCC(C)n1nc(N)cc1C1(O)CC2CC(c3ncn(C)c3C(=O)Nc3ccc(F)c(Cl)c3)CC2C1` (centres unmarked) [Example 161, 4-(5-(3-Amino-1-(sec-butyl)-1H-pyrazol-5-yl)-5-hydroxyoctahydropentalen-2-yl)-N-(3-chloro-4-fluorophenyl)-1-methyl-1H-imidazole-5-carboxamide] was less than 10 nM; that for `Cc1cc(C2(O)CC3CC(c4ncn(C)c4C(=O)Nc4ccc(F)c(Cl)c4)CC3C2)[nH]n1` (centres unmarked) [Example 144, N-(3-Chloro-4-fluorophenyl)-4-(5-hydroxy-5-(3-methyl-1H-pyrazol-5-yl)octahydropentalen-2-yl)-1-methyl-1H-imidazole-5-carboxamide] was less than 10 nM. `O=C(Nc1ccc(F)c(Cl)c1)c1c(C2CC3CC(O)CC3C2)nc2n1CCOC2` (centres unmarked) [Example 82, N-(3-Chloro-4-fluorophenyl)-2-(5-hydroxyoctahydropentalen-2-yl)-5,6-dihydro-8H-imidazo[2,1-c][1,4]oxazine-3-carboxamide]: the EC50 is 50 to 500 nM. Still for that read-out and setting: the value for `Cn1cnc(C2CC3CC(O)(c4cc(C(F)(F)F)n[nH]4)CC3C2)c1C(=O)Nc1ccc(F)c(C#N)c1` (centres unmarked) [Example 194, N-(3-Cyano-4-fluorophenyl)-4-(5-hydroxy-5-(3-(trifluoromethyl)-1H-pyrazol-5-yl)octahydropentalen-2-yl)-1-methyl-1H-imidazole-5-carboxamide] was 10 to 50 nM. Still for that read-out and setting: the value for `O=C1CC2CC(c3nc4n(c3C(=O)Nc3ccc(F)c(Cl)c3)CCC4)CC2C1` (centres unmarked) [Example 31, N-(3-Chloro-4-fluorophenyl)-2-(5-oxooctahydropentalen-2-yl)-6,7-dihydro-5H-pyrrolo[1,2-a]imidazole-3-carboxamide] was less than 10 nM. Still for that read-out and setting: the value for `Cn1cc(C2(O)CC3CC(c4nc(Cl)n(C)c4C(=O)Nc4ccc(F)c(Cl)c4)CC3C2)c(C(F)(F)F)n1` (centres unmarked) [Example 110, 2-Chloro-N-(3-chloro-4-fluorophenyl)-4-(5-hydroxy-5-(1-methyl-3-(trifluoromethyl)-1H-pyrazol-4-yl)octahydropentalen-2-yl)-1-methyl-1H-imidazole-5-carboxamide] was less than 10 nM. Take `Cn1cnc(C2CC3CC(O)(c4cc(C(C)(C)O)nn4C)CC3C2)c1C(=O)Nc1ccc(F)c(C#N)c1` (centres unmarked) [Example 108, N-(3-Cyano-4-fluorophenyl)-4-(5-hydroxy-5-(3-(2-hydroxypropan-2-yl)-1-methyl-1H-pyrazol-5-yl)octahydropentalen-2-yl)-1-methyl-1H-imidazole-5-carboxamide]: the EC50 is less than 10 nM.

`Cn1cnc(C2CC3CC(O)(c4cc(N)nn4C)CC3C2)c1C(=O)Nc1ccc(F)c(Cl)c1` (centres unmarked) [Example 51, 4-(5-(3-Amino-1-methyl-1H-pyrazol-5-yl)-5-hydroxyoctahydropentalen-2-yl)-N-(3-chloro-4-fluorophenyl)-1-methyl-1H-imidazole-5-carboxamide]: the concentration giving a half-maximal response (EC50) was less than 10 nM.

`Cc1c(N)nn(C)c1C1(O)CC2CC(c3ncn(C)c3C(=O)Nc3ccc(F)c(Cl)c3)CC2C1` (centres unmarked) [Example 75, 4-(5-(3-Amino-1,4-dimethyl-1H-pyrazol-5-yl)-5-hydroxyoctahydropentalen-2-yl)-N-(3-chloro-4-fluorophenyl)-1-methyl-1H-imidazole-5-carboxamide]: the EC50 was less than 10 nM. On the same count and under the same terms, the value for `Cn1cc(C2(O)CC3CC(c4ncn(C)c4C(=O)Nc4ccc(F)c(Cl)c4)CC3C2)c(C(F)F)n1` (centres unmarked) [Example 132, N-(3-chloro-4-fluorophenyl)-4-(5-(3-(difluoromethyl)-1-methyl-1H-pyrazol-4-yl)-5-hydroxyoctahydropentalen-2-yl)-1-methyl-1H-imidazole-5-carboxamide] was less than 10 nM. The same measure, in the same setting: the value for `Cn1cnc(C2CC3CC(O)(c4ccccn4)CC3C2)c1C(=O)Nc1ccc(F)c(Cl)c1` (centres unmarked) [Example 9, N-(3-Chloro-4-fluorophenyl)-4-(5-hydroxy-5-(pyridin-2-yl)octahydropentalen-2-yl)-1-methyl-1H-imidazole-5-carboxamide] was less than 10 nM.

In the case of `Cn1cnc(C2CC3CC(O)(c4[nH]nc(C(F)(F)F)c4Br)CC3C2)c1C(=O)Nc1ccc(F)c(C#N)c1` (centres unmarked) [Example 195, 4-(5-(4-Bromo-3-(trifluoromethyl)-1H-pyrazol-5-yl)-5-hydroxyoctahydropentalen-2-yl)-N-(3-cyano-4-fluorophenyl)-1-methyl-1H-imidazole-5-carboxamide], the EC50 was less than 10 nM. On the same count and under the same terms, under `Cn1cnc(C2CC3CC(O)(c4cc(C(C)(C)C(N)=O)nn4C)CC3C2)c1C(=O)Nc1ccc(F)c(Cl)c1` (centres unmarked) [Example 106, 4-(5-(3-(1-amino-2-methyl-1-oxopropan-2-yl)-1-methyl-1H-pyrazol-5-yl)-5-hydroxyoctahydropentalen-2-yl)-N-(3-chloro-4-fluorophenyl)-1-methyl-1H-imidazole-5-carboxamide] stands less than 10 nM; under `CC(=O)Nc1cc(C2(O)CC3CC(c4ncn(C)c4C(=O)Nc4ccc(F)c(Cl)c4)CC3C2)n(C)n1` (centres unmarked) [Example 163, 4-(5-(3-Acetamido-1-methyl-1H-pyrazol-5-yl)-5-hydroxyoctahydropentalen-2-yl)-N-(3-chloro-4-fluorophenyl)-1-methyl-1H-imidazole-5-carboxamide], less than 10 nM; under `Cn1cnc(C2CC3CC(O)(c4c[nH]nc4C(F)(F)F)CC3C2)c1C(=O)Nc1ccc(F)c(C#N)c1` (centres unmarked) [Example 193, N-(3-Cyano-4-fluorophenyl)-4-(5-hydroxy-5-(3-(trifluoromethyl)-1H-pyrazol-4-yl)octahydropentalen-2-yl)-1-methyl-1H-imidazole-5-carboxamide], less than 10 nM. The same measure, in the same setting: the value for `CC(O)COc1cc(C2(O)CC3CC(c4ncn(C)c4C(=O)Nc4ccc(F)c(Cl)c4)CC3C2)n(C)n1` (single isomer, unassigned) [Example 209, N-(3-Chloro-4-fluorophenyl)-4-(5-hydroxy-5-(3-(2-hydroxypropoxy)-1-methyl-1H-pyrazol-5-yl)octahydropentalen-2-yl)-1-methyl-1H-imidazole-5-carboxamide] was less than 10 nM. Still for that read-out and setting: the value for `CN(C)C1CC2CC(c3ncn(C)c3C(=O)Nc3ccc(F)c(Cl)c3)CC2C1` (centres unmarked) [Example 43, 5-[5-(Dimethylamino)-1,2,3,3a,4,5,6,6a-octahydropentalen-2-yl]-N-(3-chloro-4-fluorophenyl)-3-methyl-4-imidazolecarboxamide] was 10 to 50 nM. `Cn1cnc(C2CC3CC(N4CCCCC4)CC3C2)c1C(=O)Nc1ccc(F)c(Cl)c1` (centres unmarked) [Example 46, 5-[-5-(1-Piperidinyl)-1,2,3,3a,4,5,6,6a-octahydropentalen-2-yl]-N-(3-chloro-4-fluorophenyl)-3-methyl-4-imidazolecarboxamide]: the EC50 was 10 to 50 nM.

Staying with this assay, now noted: viral load lowering, 5 days, qPCR of supernatant, read-out: VL HepAD38 EC50 range.
For `CC(CO)Oc1cc(C2(O)CC3CC(c4ncn(C)c4C(=O)Nc4ccc(F)c(Cl)c4)CC3C2)n(C)n1` (centres unmarked) [Example 67, N-(3-Chloro-4-fluorophenyl)-4-(5-hydroxy-5-(3-((1-hydroxypropan-2-yl)oxy)-1-methyl-1H-pyrazol-5-yl)octahydropentalen-2-yl)-1-methyl-1H-imidazole-5-carboxamide], the EC50 was less than 10 nM.
